Measured values taken from patent US10988792B2, “Methods for antimicrobial resistance determination” (bioMerieux, Inc., priority 2009, dated 2021).

Columns and labels:
[1] = system: S. aureus ATCC 25923 (Methicillin-Sensitive; MSSA); assay: BOCILLIN-FL binding after NaOH treatment (harsh pretreatment), oil blend separation; settings: for MSSA/MRSA Ratio: MSSA (25923)/MRSA (D14906); for BOCILLIN-FL binding, fluorescence emission at 510 nm (excitation 490 nm): MSSA (25923)
Protocol: (§1) Two experimental approaches were used to test BOCILLIN™-FL (Molecular Probes, Invitrogen) binding to S. aureus: (1) treating cells with sodium hydroxide (NaOH), neutralizing, adding BOCILLIN™-FL, then separating the cells (harsh pretreatment); and (2) culturing cells with BOCILLIN™-FL, then separating the cells (metabolic labeling).
(§2) For the first method, S. aureus strains ATCC 25923 (Methicillin-Sensitive; MSSA) and D14906 (Methicillin-Resistant; MRSA) were cultured until exponential growth (6 hours) in tryptic soy broth (TSB). Samples of each suspension (0.9 ml in TSB) and 0.1 N NaOH (0.1 ml; ±20 μl 7.5% TRITON® X100-R) were vortexed for 5 seconds, then either neutralized immediately or after 1 minute by adding 1 M KH2PO4 (0.125 ml) and vortexing for 5 seconds. BOCILLIN™-FL (15 μl of 1.0 mg/ml) was added to the suspension, which was then vortexed, and incubated for 5 minutes at room temperature. Unbound BOCILLIN™-FL was removed by centrifuging the mixture over 0.2 ml of an oil blend optimized to separate microorganisms from culture media (1.0 part of Type DF microscope immersion oil+0.875 parts of Drakeol 5 mineral oil) at 10,000 rpm for 1 minute. The supernatant and oil layer were removed and the pellet resuspended in 3.0 ml PBS, pH 7.4. The sample was scanned in the FluoroLog-3 system at an excitation wavelength of 490 nm and the fluorescence emission at 510 nm was recorded.

[2] = system: S. aureus D14906 (Methicillin-Resistant; MRSA); assay: as above
Protocol: as §1, §2

[3] = system: S. aureus ATCC 25923 (MSSA); assay: BOCILLIN-FL metabolic labeling (culturing cells with BOCILLIN-FL); assay type: binding; settings: for MSSA/MRSA Ratio: MSSA (25923)/MRSA (D14906); for BOCILLIN-FL binding, fluorescence emission at 510 nm (excitation 490 nm), raw data: MSSA (25923)
Protocol: as §1
(§3) For the second method, the two bacterial suspensions (13 ml) were mixed with BOCILLIN™-FL (175 μl of 1.0 mg/ml stock). The mixtures were aliquoted in 1.0 ml samples into microfuge tubes containing 0.2 ml of oil blend. The tubes were incubated at 37° C. for various time-points (keeping 1 set of tubes on ice for the T0 time-point). One set of tubes was removed at 30 minutes and the cells separated from free BOCILLIN™-FL by washing twice with PBS. One set of tubes was removed at 30, 52, 68, and 86 minutes and the cells separated from free BOCILLIN™-FL by centrifugation through the oil blend. The cells were recovered and resuspended in 3 ml PBS. The samples were scanned in the FluoroLog-3 system at an excitation wavelength of 490 nm and the fluorescence emission at 510 nm was recorded.

[4] = system: S. aureus D14906 (MRSA); assay: as above; assay type: binding
Protocol: as §1, §3

[5] = system: S. aureus strains ATCC 25923 (MSSA) and D14906 (MRSA); assay: Time course of BOCILLIN-FL binding
Protocol: Samples of S. aureus strains ATCC 25923 (MSSA) and D14906 (MRSA) were grown in BacT/ALERT SA culture media at 37° C. until exponential growth was reached (8-10 hours). The OD 660 nm of each culture was measured and both suspensions were adjusted to 0.50 with pre-warmed SA media. BOCILLIN™-FL was diluted in pre-warmed SA media, filtered through a 0.2 μm filter and kept at 37° C. Samples of the bacteria (9.0 ml) were mixed with 1.0 ml of 100 μM BOCILLIN™-FL, mixed well, and dispensed as ten 1.0 ml aliquots into microfuge tubes containing 0.2 ml of the same oil blend used in Example 1. All tubes except the T0 tube were placed at 37° C. Tubes were removed and processed at 6, 11, 16, 22, 45, 60, 75, and 91 minutes. Each tube was centrifuged for 1 minute, the supernatant was aspirated, and the pellet was resuspended in 0.1 ml PBS and then added to 3.0 ml PBS in an acrylic cuvette. The sample was scanned in the FluoroLog-3 system at an excitation wavelength of 490 nm and the fluorescence emission at 510 nm was recorded.

[6] = 30′ at 37° C., washed x 2 (PBS)

MSSA/MRSA Ratio ([1]; a = 5″ at pH 12): 2.3
MSSA/MRSA Ratio ([1]; b = 60″ at pH 12): 1.1
MSSA/MRSA Ratio ([1]; c = 5″ at pH 12 + TX100): 1.5
MSSA/MRSA Ratio ([1]; d = 60″ at pH 12 + TX100): 2.0
BOCILLIN-FL binding, fluorescence emission at 510 nm (excitation 490 nm) ([1]; a = 5″ at pH 12): 3.7 × 10^6
BOCILLIN-FL binding, fluorescence emission at 510 nm (excitation 490 nm) ([1]; b = 60″ at pH 12): 1.0 × 10^6
BOCILLIN-FL binding, fluorescence emission at 510 nm (excitation 490 nm) ([1]; c = 5″ at pH 12 + TX100): 0.9 × 10^6
BOCILLIN-FL binding, fluorescence emission at 510 nm (excitation 490 nm) ([1]; d = 60″ at pH 12 + TX100): 0.8 × 10^6
BOCILLIN-FL binding, fluorescence emission at 510 nm (excitation 490 nm) ([2]; a = 5″ at pH 12): 1.6 × 10^6
BOCILLIN-FL binding, fluorescence emission at 510 nm (excitation 490 nm) ([2]; b = 60″ at pH 12): 0.9 × 10^6
BOCILLIN-FL binding, fluorescence emission at 510 nm (excitation 490 nm) ([2]; c = 5″ at pH 12 + TX100): 0.6 × 10^6
BOCILLIN-FL binding, fluorescence emission at 510 nm (excitation 490 nm) ([2]; d = 60″ at pH 12 + TX100): 0.4 × 10^6
Time at which maximal binding was measured ([5]; room temperature (the T0 tube), oil method): 5 min
SMILES: Cc1cc(C)n2c1C=C1C=CC(CCC(=O)Nc3ccc(OCC(=O)N[C@@H]4C(=O)N5[C@@H]4SC(C)(C)[C@@H]5C(=O)[O-])cc3)=[N+]1[B-]2(F)F.[Na+] [BOCILLIN™-FL]
BOCILLIN-FL bound by the MRSA strain, less than the MSSA strain, per cell basis ([3]; BOCILLIN-FL signal normalized to the microbial tryptophan signal (FIG. 1)): 3-4 fold
MSSA/MRSA Ratio ([3]; 30′ at 37° C., separation Oil): 5.60
MSSA/MRSA Ratio [3, 6]: 2.00
MSSA/MRSA Ratio ([3]; 52′ at 37° C., separation Oil): 5.35
MSSA/MRSA Ratio ([3]; 68′ at 37° C., separation Oil): 7.17
MSSA/MRSA Ratio ([3]; 86′ at 37° C., separation Oil): 4.48
MSSA/MRSA Ratio ([3]; T0 (ice), separation Oil): 2.36
BOCILLIN-FL binding, fluorescence emission at 510 nm (excitation 490 nm), raw data ([3]; 30′ at 37° C., separation Oil): 1,831,790
BOCILLIN-FL binding, fluorescence emission at 510 nm (excitation 490 nm), raw data [3, 6]: 410,830
BOCILLIN-FL binding, fluorescence emission at 510 nm (excitation 490 nm), raw data ([3]; 52′ at 37° C., separation Oil): 1,941,930
BOCILLIN-FL binding, fluorescence emission at 510 nm (excitation 490 nm), raw data ([3]; 68′ at 37° C., separation Oil): 2,481,450
BOCILLIN-FL binding, fluorescence emission at 510 nm (excitation 490 nm), raw data ([3]; 86′ at 37° C., separation Oil): 2,285,980
BOCILLIN-FL binding, fluorescence emission at 510 nm (excitation 490 nm), raw data ([3]; T0 (ice), separation Oil): 2,745,600
BOCILLIN-FL bound by the MRSA strain, less than the MSSA strain ([3]; raw data (Table 2), metabolic labeling): 2-7 fold
BOCILLIN-FL binding, fluorescence emission at 510 nm (excitation 490 nm), raw data ([4]; 30′ at 37° C., separation Oil): 326.790
BOCILLIN-FL binding, fluorescence emission at 510 nm (excitation 490 nm), raw data [4, 6]: 206,250
BOCILLIN-FL binding, fluorescence emission at 510 nm (excitation 490 nm), raw data ([4]; 52′ at 37° C., separation Oil): 363,000
BOCILLIN-FL binding, fluorescence emission at 510 nm (excitation 490 nm), raw data ([4]; 68′ at 37° C., separation Oil): 346,270
BOCILLIN-FL binding, fluorescence emission at 510 nm (excitation 490 nm), raw data ([4]; 86′ at 37° C., separation Oil): 510,150
BOCILLIN-FL binding, fluorescence emission at 510 nm (excitation 490 nm), raw data ([4]; T0 (ice), separation Oil): 1,163,240
BOCILLIN-FL bound by the MSSA strain, more than the MRSA strain, per cell basis ([5]; 1.0 ml of 100 μM BOCILLIN-FL mixed with 9.0 ml bacteria, irrespective of the culture time): 2-3 times
